In PubChem BioAssay (NCI):
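Five compound concentrations were applied to cells in 96-well plates for 48 hours; endpoints were derived by simple linear interpolation of the resulting dose-response curve. GI50 is the concentration that inhibits growth by half. TGI marks complete inhibition of growth.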

How the values were obtained:
Assay in all cases: growth of human tumour cells (NCI), 48 h
[1] = tested on: SK-OV-3 ovarian
[2] = tested on: LOX IMVI melanoma
[3] = tested on: OVCAR-3 ovarian
[4] = tested on: HOP-92 NSCLC
[5] = tested on: ACHN renal
[6] = tested on: SK-MEL-28 melanoma
[7] = tested on: T-47D breast
[8] = tested on: MCF7 breast
[9] = tested on: CAKI-1 renal
[10] = tested on: SNB-19 CNS

| Compound | GI50 [1] [µM] | TGI [1] [µM] | GI50 [2] [µM] | TGI [2] [µM] | GI50 [3] [µM] | TGI [3] [µM] | GI50 [4] [µM] | TGI [4] [µM] | GI50 [5] [µM] | TGI [5] [µM] | GI50 [6] [µM] | TGI [6] [µM] | GI50 [7] [µM] | TGI [7] [µM] | GI50 [8] [µM] | TGI [8] [µM] | GI50 [9] [µM] | TGI [9] [µM] | GI50 [10] [µM] | TGI [10] [µM] |
| --- | --- | --- | --- | --- | --- | --- | --- | --- | --- | --- | --- | --- | --- | --- | --- | --- | --- | --- | --- | --- |
| CCCc1cc(O)c2c3c(c(=O)oc2c1)CN(C)CC3 | 85 | > 100 | 76.2 | > 100 | > 100 | > 100 | 15.7 | > 100 | > 100 | > 100 | 21.8 | 67.4 | 37.8 | > 100 | 44.8 | > 100 | > 100 | > 100 | > 100 | > 100 |
| C#CCN(Cc1nc2cc(C(F)(F)F)ccc2nc1-c1ccccc1)c1ccc(OC(F)(F)F)cc1 | > 100 | > 100 | 37 | 96.1 | 49.1 | > 100 | 18.5 | 77.3 | 50.2 | > 100 | > 100 | > 100 | 39.1 | > 100 | 32 | > 100 | 62 | > 100 | > 100 | > 100 |
| CC(=O)N1N=C(c2ccc(Nc3nc(Nc4ccc(Cl)cc4)nc(Nc4ccc(Cl)cc4)n3)cc2)CC1c1ccc([N+](=O)[O-])cc1 (stereo not given) | 4.3 | 34.2 | 5.66 | > 47.1 | 5.93 | 25.6 | 5.18 | 54.7 | 5.49 | > 100 | 8.79 | 74.4 | 1.74 | 7.2 | 1.71 | 10.4 | 6.1 | 32.5 | 3.8 | 38.7 |
| CCCCCCc1cc2cc(-c3nc4ccccc4[nH]3)c(=Nc3ccccc3C)oc2cc1O | 3.57 | 13.7 | 1.87 | 3.74 | 1.77 | 3.28 | 0.492 | 5.12 | 2.04 | 5.24 | 1.88 | 3.73 | 2.12 | 5.25 | 2.24 | > 23.8 | 2.36 | 9.74 | 3.58 | 22 |
| Fc1ccc(-c2nn3c(-c4ccc(F)c(Cl)c4)nnc3s2)cc1 | 19.4 | > 50 | 32.8 | > 50 | > 50 | > 50 | 15.6 | > 50 | 29.1 | > 50 | > 50 | > 50 | 34.8 | > 50 | 30.3 | > 50 | 26 | > 50 | 20.1 | > 50 |
| Cc1ccc(NC(=O)Cc2ccc(/C=C/C(=O)c3ncc[nH]3)cc2)cc1 | 12.8 | > 25 | 1.29 | 6.76 | 1.67 | > 25 | 18.5 | > 25 | 6.51 | 21.4 | 11.5 | > 25 | 6.47 | > 25 | 1.15 | > 25 | 9.62 | > 25 | 6.65 | > 25 |
| CC(=O)Nc1ccc(/C=C/C(=O)c2ccccc2)cc1 | 27.1 | 96 | 4.71 | 18.9 | 7.41 | 20.1 | 17.9 | 51.1 | 13.1 | 29.6 | 20.5 | 44.2 | 13.8 | 42.3 | 3.5 | 13.9 | 3.77 | 16.2 | 13.5 | 34.1 |
| N#Cc1cccc(OCc2nc(N)nc(N)c2-c2ccc(Cl)c(Cl)c2)c1 | 9.56 | > 100 | 0.575 | > 100 | 5.53 | > 100 | 1.82 | 9.06 | 0.896 | > 100 | 14.5 | > 100 | 8.25 | > 100 | 3.09 | > 100 | 0.893 | > 100 | 4.28 | > 100 |
| Clc1cc2c(cc1Cl)Oc1cc(Cl)c(Cl)cc1O2 | > 0.625 | > 0.625 | > 0.625 | > 0.625 | > 0.625 | > 0.625 | > 0.625 | > 0.625 | > 0.625 | > 0.625 | > 0.625 | > 0.625 | > 0.625 | > 0.625 | > 0.625 | > 0.625 | > 0.625 | > 0.625 | > 0.625 | > 0.625 |
| CCOc1ccc(-c2cnnn2-c2nonc2-n2cccc2)cc1 | 0.274 | 1.02 | 0.46 | > 100 | 0.233 | 0.65 | 0.401 | 9.27 | 0.689 | > 100 | 0.402 | > 100 | 0.466 | > 100 | 0.283 | > 100 | 0.352 | > 100 | 0.729 | > 100 |
| CC(C)[C@H]1CC[C@H]2[C@@H](CC[C@H]3[C@](C)(CN)CCC[C@]23C)C1 | 4.25 | 16.3 | 1.61 | 2.98 | 1.96 | 3.84 | 1.22 | 8.12 | 2.42 | 6.44 | 16.8 | 30.8 | 1.96 | 4.52 | 1.51 | 2.85 | 1.71 | 4.2 | 3.19 | 12.9 |
| CCCCCc1nc2c(c3c1CCCC3)CCCC2 | 11.6 | 30 | 13.4 | 27 | 4.7 | 17.8 | 1.95 | 8.36 | 11.5 | 30.5 | 14.8 | 36.2 | 6.2 | 24.9 | 5.28 | 21.2 | 3.98 | 24 | 18.3 | > 100 |
| O=S(=O)(Cc1ccc(Cl)cc1Cl)c1ccc(Cl)cc1 | 1.47 | > 57.7 | 0.587 | > 100 | 0.346 | 1.8 | 20.8 | > 92.5 | 1.04 | > 100 | 1.97 | > 100 | 6.02 | > 100 | 0.341 | > 100 | 0.52 | > 100 | 1.38 | > 100 |
| Cc1cc2cc3cc(C)c(N(C)C)cc3[n+](C)c2cc1N(C)C | 5.05 | > 100 | 3.14 | 40.8 | 3.13 | 14 | 2.3 | 11.1 | 3.69 | > 100 | 2.64 | 8.53 | 2.94 | > 100 | 2.38 | > 100 | 2.7 | > 100 | 4.22 | > 100 |
| CCC1C(=O)OCc2c1cc1n(c2=O)Cc2cc3ccccc3nc2-1 (stereo not given) |  | > 100 |  | > 51.2 |  | > 100 |  | > 100 |  | > 100 |  | > 100 |  | > 90.2 |  | > 48.6 |  | 16.3 |  | > 100 |
| COc1cc(C(=O)N2N=C(c3ccc(S(C)(=O)=O)cc3)CC2c2ccco2)cc(OC)c1OC (stereo not given) | 4.9 | > 100 | 5.85 | > 100 | 1.95 | 5.46 | 3.65 | > 100 | 5.76 | > 100 | 22.2 | > 100 | 3.79 | > 100 | 2.89 | > 100 | 4.94 | > 90.8 | 5.92 | > 100 |
| COc1ccc2c(c1O)C13CCN(C)C(C2)C1CCC1(C3)OCCO1 (stereo not given) |  | > 100 |  | > 100 |  | > 100 |  | > 100 |  | > 100 |  | > 100 |  | > 100 |  | > 100 |  | > 100 |  | > 100 |
| Cc1cc(Cl)cc2c(N=Nc3ccccc3[N+](=O)[O-])c(O)[nH]c12 |  | > 100 |  | > 100 |  | > 100 |  | > 100 |  | > 100 |  | > 100 |  | > 100 |  | > 100 |  | > 100 |  | > 100 |
| N#Cc1ncc(-c2ccc(C(F)(F)F)cc2)c(NCc2cc(C(F)(F)F)cc(C(F)(F)F)c2)n1 | 5.23 | 47.3 | 3.02 | 16.5 | 3.8 | 22.7 | 2.14 | 5.74 | 3.62 | > 100 | 5.17 | > 100 | 3.35 | > 100 | 2.74 | > 100 | 3.6 | 61.9 | 4.84 | 63.3 |
